The source of these data is patent US20040039014A1, “Methods and compounds for treating depression and other disorders” (NPS Pharmaceuticals, Inc., priority 1998, published 2004).

Usually IC50 stands for the midpoint of a concentration-inhibition curve. One may read the Ki as the equilibrium dissociation constant of an inhibitor or competing ligand from its target.

The structures appear in SMILES notation. Where two headings read alike, the source gives them in different places. Marks after values point to notes of the source that are not given here.

Assay [1] concerns the target T1, NMDA receptor.
T1 construct: rat cortex membranes
In words: [3H]MK-801 binding assay (rat cortex synaptic plasma membranes). The note with it: read-out: [3H]MK-801 data IC50, Table I. The procedure:
Synaptic plasma membranes (SPMs) from rat cortex were prepared as follows. Isolated cerebral cortices from male and female rats were purchased from Pel-Freez (Rogers, Ariz.) in bulk, and stored at −80° C. The cortices from 25 rats were thawed and pooled. […] The resulting homogenates were centrifuged for 10 min at 1,000×g in a T865 rotor, UltraPro80 Sorvall Centrifuge. The supernatant was removed and subsequently centrifuged at 30,000×g for 30 min. […] Membranes were washed by re-suspension in 500 ml of 5 mM K-EDTA (pH 7.0), incubated at 32° C. for 30 min with stirring, and centrifuged at 100,000×g for 30 min. The final pellet was resuspended in 60 ml of […] K-EDTA (pH 7.0) and stored in aliquots at −80° C. The extensive washing procedure utilized in this assay was designed to minimize the concentrations of glutamate and glycine (co-agonists at the NMDA receptor-ionophore complex) present in the membrane preparation.
On the day of assay, aliquots of SPM were thawed and resuspended in 75 vols of 5 mM K-EDTA, pH 7.0. SPM were centrifuged at 100,000×g for 30 min at 4° C.
The SPM pellet was resuspended in assay buffer (30 mM EPPS, 1 mM K-EDTA, pH 7.0) by polytron. […] Binding was started by the addition of the tissue homogenate. The assay was terminated by the addition of 4 ml ice-cold buffer, followed by filtration over glass-fiber filters (Schleicher & Schuell No. 30) on a Millipore 12-well filtration manifold. Filters were washed with another 3 ×4 ml ice-cold buffer (pH 7.0). Radioactivity on the filters was measured using Fisherbrand Scinti-Safe scintillation cocktail. Samples were shaken for 45-60 min on a shaker platform to solubilize the radioactivity. Counting for ^3H was performed in a Beckman 6000IC LS Scintillation Counter for 4 min per sample.

Another assay deals with male NMRI-CERJ mice. In words: Automated tail-suspension test in mice (Compound 19). It counts as in vivo, mouse. Particulars: 16 mg/kg i.p., 30 min prior to testing; p<0.001. The protocol: In this test, the animal is suspended by the tail for 6 minutes. The behavior of the animal is recorded automatically using a special computerized apparatus which measures two parameters, the duration of immobility and the power of the movements. Ten animals are studied per dose group. […] This test, which is a variant of the behavioral despair test, is based on the assumption that animals faced with an insoluble aversive situation will alternate between phases of activity (searching to escape) and immobility (waiting, “despairs”).

The subject of assay [2] is T2, NMDA receptor.
T2 construct: fura2 data IC50; rat cerebellar granule cells
Description: NMDA receptor assay (fura-2 cytosolic calcium in cultured rat cerebellar granule cells). It counts as cell-based. The note with it: Table I, read-out: fura2 data IC50. The protocol:
All culture media, antibiotics, and enzymes, with the exception of fetal calf serum (Hyclone Laboratories, Logan, Utah), were purchased from Sigma Chemical Co., St. Louis, Mo. Fura-2/AM was obtained from Molecular Probes, Eugene, Oreg., and was prepared freshly in dimethylsulfoxide (DMSO) before use. Ionomycin (Calbiochem) was stored as a stock solution in DMSO. Nifedipine (Sigma) and nimodipine (RBI) were dissolved in absolute ethanol. […] All other agents were dissolved in phosphate-buffered saline (PBS), and adjusted to pH 7.4
Preparation of Rat Cerebellar Granule Cell (RCGC) Cultures
Briefly, primary cultures of cerebellar granule neurons were obtained from 8-day-old rats and plated onto squares of Aclar plastic coated with poly-L-lysine. The plastic squares were placed in 12-well culture plates, and ˜7.5×10^5 cells were added to each well. Cultures were maintained in Eagles's medium containing 25 mM KCl, 10% fetal calf serum, 2 mM glutamine, 100 μg/ml gentamicin, 50 U/ml penicillin, and 50 μg/ml streptomycin at 37° C. in a humid atmosphere of 5%CO2 in air for 24 hr before the addition of cytosine arabinoside (10 μM, final). No changes of culture medium were made until the cells were used for fluorescence recording 6-8 days after plating.
Measurement of Cytosolic Calcium
(“Ca^2+-free” buffer contained no added CaCl2 and 30 μM EGTA). The cells were then rinsed with the same buffer, lacking fura-2/AM, and maintained at room temperature until used for measurement of fluorescence, the Aclar squares were transferred into quartz cuvettes containing 2 ml of the HEPES buffer. The cuvette was then placed into a thermostatted holder equipped with a magnetic stirrer in a custom-built spectrofluorimeter (Biomedical Instrumentation Group, University of Pennsylvania, Philadelphia, Pa.). The size of the plastic Aclar square was such as to fit snugly in the cuvette when placed at a diagonal and therefore suspend itself over the spin bar. Fluorescence was measured using excitation and emission wavelengths of 340 and 510 nm, respectively. The amplitude of the evoked increase in fluorescence and subsequent inhibition were recorded and the concentration of [Ca^2+]i was calculated using the formula:
[Ca^2+]=Kd (F-Fmin)/(Fmax-F) (Eq. 1)
F=fluorescence amplitude evoked at a particular time point or concentration of compound;
Fmin=minimum fluorescence determined after the addition of a 2.5 M TRIS/0.3 M EGTA solution;
Fmax=maximum fluorescence determined following the addition of 7 mM ionomycin in DMSO; and […]

Assay [3] addresses T3, serotonin transporter site (Rattus norvegicus, UniProt P31652).
T3 construct: tissue NovaScreen (performed the assay); host or cells: rat forebrain membranes
Description: Serotonin reuptake inhibition assay ([3H]citalopram binding, rat forebrain membranes). The procedure: (§1) Monoamine Transporter Minding Assays
(§2) Monoamine transporter binding assays (reuptake inhibition assays) were performed by NovaScreen using standard radioligand binding assays. The transporter binding assays are described briefly below:
Serotonin Reuptake Inhibition Assay
Rat forebrain membranes were incubated with 0.7 nM [^3H] citalopram, N-methyl, (70-87 Ci/mmol)in 50 mM Tris-HCl (pH 7.4), 120 mM NaCl, and 5 mM KCl at 25° C. for 60 minutes. […] Reactions were terminated by rapid vacuum filtration onto glass fiber filters.

The target of assay [4] is T4, norepinephrine transporter site (Rattus norvegicus, UniProt Q63380).
T4 construct: tissue NovaScreen (performed the assay); host or cells: rat forebrain membranes
T4 sequence (Q63380 1-617): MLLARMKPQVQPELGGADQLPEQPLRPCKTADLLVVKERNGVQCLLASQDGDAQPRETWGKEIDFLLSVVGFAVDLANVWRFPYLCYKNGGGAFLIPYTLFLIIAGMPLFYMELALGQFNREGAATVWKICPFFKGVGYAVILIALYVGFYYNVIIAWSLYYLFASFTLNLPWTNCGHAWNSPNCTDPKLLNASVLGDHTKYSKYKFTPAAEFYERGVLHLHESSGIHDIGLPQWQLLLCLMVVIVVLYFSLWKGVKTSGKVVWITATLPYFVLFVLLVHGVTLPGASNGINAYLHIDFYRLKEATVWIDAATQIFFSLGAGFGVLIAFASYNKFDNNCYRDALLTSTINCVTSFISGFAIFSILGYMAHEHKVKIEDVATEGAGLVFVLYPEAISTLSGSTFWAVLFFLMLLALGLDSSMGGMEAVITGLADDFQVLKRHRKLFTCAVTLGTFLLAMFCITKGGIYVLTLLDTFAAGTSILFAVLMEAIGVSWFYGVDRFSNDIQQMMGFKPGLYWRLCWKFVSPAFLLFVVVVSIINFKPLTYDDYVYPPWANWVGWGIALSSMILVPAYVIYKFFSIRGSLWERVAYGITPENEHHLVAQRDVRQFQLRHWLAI
Description: Norepinephrine reuptake inhibition assay ([3H]nisoxetine binding, rat forebrain membranes). The protocol: as §1, §2
Norepinephrine Reuptake Inhibition Assay
Reactions were terminated by rapid vacuum filtration onto glass fiber filters.

For assay [5], the target named is T5, dopamine transporter site (Cavia porcellus, UniProt H0WCX4).
T5 construct: tissue NovaScreen (performed the assay); host or cells: guinea pig striatal membranes
T5 sequence (H0WCX4 1-619): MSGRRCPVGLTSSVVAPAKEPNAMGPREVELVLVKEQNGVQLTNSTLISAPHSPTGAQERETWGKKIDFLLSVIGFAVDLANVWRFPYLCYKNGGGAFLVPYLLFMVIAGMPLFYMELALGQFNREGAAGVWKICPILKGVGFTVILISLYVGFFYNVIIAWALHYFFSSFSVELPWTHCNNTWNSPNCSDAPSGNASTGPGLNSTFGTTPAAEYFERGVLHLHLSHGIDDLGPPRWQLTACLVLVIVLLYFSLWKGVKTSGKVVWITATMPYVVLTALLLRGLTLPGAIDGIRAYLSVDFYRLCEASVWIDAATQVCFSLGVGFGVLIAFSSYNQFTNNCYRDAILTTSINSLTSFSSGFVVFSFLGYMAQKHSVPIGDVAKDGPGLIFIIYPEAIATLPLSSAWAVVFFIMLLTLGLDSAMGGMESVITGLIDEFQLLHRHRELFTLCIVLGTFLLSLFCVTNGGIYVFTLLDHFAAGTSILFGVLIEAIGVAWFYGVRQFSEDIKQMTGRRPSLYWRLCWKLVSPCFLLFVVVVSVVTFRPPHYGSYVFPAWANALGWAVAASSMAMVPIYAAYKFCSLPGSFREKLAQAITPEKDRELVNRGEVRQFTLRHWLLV
In words: Dopamine reuptake inhibition assay ([3H]WIN 35428 binding, guinea pig striatal membranes). The protocol:
as §1, §2
Dopamine Reuptake Inhibition Assay:
Reactions were terminated by rapid vacuum filtration onto glass fiber filters. Bound radioactivity was determined using liquid scintillation spectrometry and experimental values were compared to control values to determine binding to the dopamine transporter site based on Madras, et al., Molec.

The subject of a further assay is male NIH-Swiss mice. Description: Mouse forced-swim test (FST). It counts as in vivo. Particulars: 10 mg/kg i.p. single dose 30 minutes prior to testing. The procedure:
(§3) For the mouse and rat forced-swim tests, male pathogen-free NIH-Swiss mice (Harlan Sprague-Dawley) weighing between 22-25 g, and male pathogen-free Sprague-Dawley rats (Harlan Sprague-Dawley) weighing between 320-350 g were used. Animals were removed from the housing room to the testing area in their own cages and allowed to adapt to the new environment for at least 1 hour before testing. Mice were administered either drug (imipramine, 10 mg/kg i.p.; or Compound 60, various p.o or i.p. doses) or saline. Thirty minutes to 24 hours later, mice were placed individually in cylinders (diameter: 10 cm; height: 25 cm) filled with 6 cm of water (22-25° C.) for 6 minutes. The duration of immobility during the last 4 minutes of the 6 minute test was scored. A mouse was recorded as immobile when floating motionless or making only those movements necessary to keep its head above water. Results were expressed as the duration of immobility (seconds).

The test system of another assay is male Sprague-Dawley rats. Description: Rat forced-swim test (FST). It is filed as in vivo. The note with it: Table VI; 10 mg/kg i.p., 30 minutes prior to testing; saline control 47.9. The procedure:
as §3
The rat forced-swim test was conducted over two days. On treatment Day 1, rats were placed individually in cylinders (diameter: 18 cm; height: 40 cm) filled with water (22-25° C.) to a depth of 15 cm for 15 minutes. The duration of immobility during the first 5 minutes was scored. After testing, the rats were dried with paper towels and placed in holding cages. Five minutes after removal from the testing cylinders, animals received either drug (imipramine, 10 mg/kg i.p.; or Compound 60, various p.o. doses) or saline (p.o.). Ten minutes later, the rats were returned to their home cages. […] The duration of immobility during the first 5 minute period was recorded. A rat was recorded as immobile when floating motionless or making only those movements necessary to keep its head above water. […]

The next assay has as its system male C57BL/6 mice. Description: Mouse tail-suspension test (TST) with Compound 60. It is filed as in vivo. The protocol:
For the mouse tail-suspension test with Compound 60, male pathogen-free C57BL/6 mice (Harlan Sprague-Dawley) weighing between 22-25 g were used. Animals were removed from the housing room to the testing area in their own cages and allowed to adapt to the new environment for at least 1 hour before testing. Mice were administered either drug (imipramine, 15 mg/kg i.p.; or Compound 60, various p.o. doses) or saline. Thirty minutes to 24 hours later, the mice were suspended on the edge of a shelf 80 cm above the floor in the testing room by adhesive tape placed approximately 1 cm from the tip of the tail. The duration of immobility was recorded during a test period of 5 minutes. Mice were considered immobile only when they hung passively and completely motionless. Results were expressed as the duration of immobility (sec).

Setting [6] is: Table I, read-out: 5-HT Uptake Ki.

T3 sequence (P31652 whole entry): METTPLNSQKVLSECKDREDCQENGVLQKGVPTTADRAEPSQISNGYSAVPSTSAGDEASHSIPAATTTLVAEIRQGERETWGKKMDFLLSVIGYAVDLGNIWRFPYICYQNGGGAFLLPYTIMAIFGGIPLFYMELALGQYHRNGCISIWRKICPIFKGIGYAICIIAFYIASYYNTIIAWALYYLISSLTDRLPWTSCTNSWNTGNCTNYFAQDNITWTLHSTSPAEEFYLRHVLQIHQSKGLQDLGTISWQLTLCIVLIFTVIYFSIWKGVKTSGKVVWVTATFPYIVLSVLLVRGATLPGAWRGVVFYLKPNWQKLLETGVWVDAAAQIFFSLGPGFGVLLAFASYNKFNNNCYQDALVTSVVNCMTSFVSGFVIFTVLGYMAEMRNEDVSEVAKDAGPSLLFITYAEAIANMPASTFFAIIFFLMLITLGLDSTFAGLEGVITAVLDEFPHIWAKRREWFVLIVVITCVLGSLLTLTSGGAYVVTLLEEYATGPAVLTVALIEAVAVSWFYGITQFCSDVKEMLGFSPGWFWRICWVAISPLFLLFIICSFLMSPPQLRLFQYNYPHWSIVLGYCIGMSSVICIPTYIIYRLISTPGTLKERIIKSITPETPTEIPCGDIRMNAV

`NCCC(c1ccccc1)c1ccccc1` [Compound 19]: the IC50 at NMDA receptor [1] came to 2100 nM. Besides, in the assay on male NMRI-CERJ mice, the “increase in the power of movements” value is on record as 275%.

With `NCCC(c1cccc(F)c1)c1cccc(F)c1` [Compound 20], the IC50 in the assay with NMDA receptor [2] was found to be 70 nM; on NMDA receptor [1], 252 nM. Moreover, the Ki was 256 nM in assay [3] (setting [6]), 312 nM in assay [4] and 3000 nM in [5].

As to `C[C@@H](CN)C(c1cccc(F)c1)c1cccc(F)c1` [Compound 33], the IC50 in the assay on NMDA receptor [2] was 60 nM; on NMDA receptor [1], 181 nM. In addition, the Ki in assay [3] (setting [6]) came out at 1200 nM; in [4], 3800 nM; in assay [5], 826 nM.

Take `C[C@H](CN)C(c1cccc(F)c1)c1cccc(F)c1` [Compound 34]: the IC50 is 426 nM in the assay on NMDA receptor [2] and 2700 nM at NMDA receptor [1]. In addition, the Ki turned out to be 2100 nM in assay [3] (setting [6]), 3000 nM in assay [4] and 602 nM in [5].

For `C[C@H](N)CC(c1cccc(F)c1)c1cccc(F)c1` [Compound 50], the IC50 was determined as 89 nM with NMDA receptor [2] and 762 nM at NMDA receptor [1]. The Ki is 45 nM in assay [3] (setting [6]), 107 nM in [4] and 1800 nM in assay [5].

`CNCCC(c1ccccc1)c1ccccc1` [Compound 67]: the IC50 was 11000 nM in the assay with NMDA receptor [2] and 2900 nM on NMDA receptor [1].

For `Fc1cccc(C(c2cccc(F)c2)C2CCCNC2)c1` (centres unmarked) [Compound 111], the figures for the IC50 in the assay with NMDA receptor [2] and on NMDA receptor [1] were 645 nM and 167 nM, respectively. In addition, the Ki in assay [3] came out at 600 nM; in assay [4] it was 124 nM; in assay [5], 30 nM.

Turning to `NCCC(Oc1cccc(F)c1)c1ccccc1` (centres unmarked) [Compound 137], in the assay on NMDA receptor [2], the IC50 turned out to be 232 nM.

`CN(C)CCCN1c2ccccc2CCc2ccccc21` [Imipramine, reference compound]: the “Mean duration of immobility” value in the assay with male NIH-Swiss mice (Table IV, saline control 129.7) is 53.4* sec; with male NIH-Swiss mice (Table V, saline control 137.8) it was 72.5* sec; in the assay on male C57BL/6 mice (Table VII, positive control, 15 mg/kg i.p. 30 minutes prior to testing, saline control 154.9), 103.6* sec. Moreover, in the assay with male Sprague-Dawley rats, the “Mean Change in the Duration of Immobility (Day 2 minus Day 1)” value is −23.3* sec. Besides, the “Duration of Immobility” value in the assay with male C57BL/6 mice (Table VIII (experiment #1), 15 mg/kg i.p. single dose 30 minutes prior to testing, saline control 210.1) was 133.9* sec.
